Measurements reported in ChEMBL document CHEMBL3627608, “Crystal structures of human RIP2 kinase catalytic domain complexed with ATP-competitive inhibitors: Foundations for understanding inhibitor selectivity” (Bioorg Med Chem, 2015).

Tests used:
[1] = target: Tyrosine-protein kinase Fes/Fps (Homo sapiens) (UniProt P07332); test: Inhibition of FES (unknown origin) at 10 uM after 120 mins P33 radiolabeled kinase activity assay
[2] = target: T1, Serine/threonine-protein kinase Nek11 (Homo sapiens) (UniProt Q8NG66); test: Inhibition of NEK11 (unknown origin) at 10 uM after 120 mins P33 radiolabeled kinase activity assay
T1 sequence (whole entry): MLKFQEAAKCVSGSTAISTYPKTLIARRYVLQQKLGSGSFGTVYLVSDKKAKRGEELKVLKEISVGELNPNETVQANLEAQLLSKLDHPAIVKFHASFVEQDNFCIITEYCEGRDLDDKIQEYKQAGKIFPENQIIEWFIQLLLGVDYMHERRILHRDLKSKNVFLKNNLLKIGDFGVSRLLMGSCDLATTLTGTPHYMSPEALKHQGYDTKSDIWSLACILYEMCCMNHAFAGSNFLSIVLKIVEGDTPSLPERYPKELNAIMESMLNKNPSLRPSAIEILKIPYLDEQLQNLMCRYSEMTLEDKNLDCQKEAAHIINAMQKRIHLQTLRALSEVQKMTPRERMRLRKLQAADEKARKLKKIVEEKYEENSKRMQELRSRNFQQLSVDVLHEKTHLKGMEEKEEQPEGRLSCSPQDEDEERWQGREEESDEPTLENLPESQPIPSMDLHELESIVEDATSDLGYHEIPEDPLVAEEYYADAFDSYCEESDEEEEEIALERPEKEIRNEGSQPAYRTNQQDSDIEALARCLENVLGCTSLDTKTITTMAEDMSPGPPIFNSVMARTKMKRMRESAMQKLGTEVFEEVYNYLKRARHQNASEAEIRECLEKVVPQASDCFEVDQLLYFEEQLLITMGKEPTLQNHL

Homo sapiens = species: Homo sapiens; test: Inhibition of PKG1beta (unknown origin) at 10 uM after 120 mins P33 radiolabeled kinase activity assay
[3] = target: RAF proto-oncogene serine/threonine-protein kinase (Homo sapiens) (UniProt P04049); test: Inhibition of RAF1 (unknown origin) at 10 uM after 120 mins P33 radiolabeled kinase activity assay
[4] = target: T2, Dual serine/threonine and tyrosine protein kinase (Homo sapiens) (UniProt Q6XUX3); test: Inhibition of RIPK5 (unknown origin) at 10 uM after 120 mins P33 radiolabeled kinase activity assay
T2 sequence (whole entry): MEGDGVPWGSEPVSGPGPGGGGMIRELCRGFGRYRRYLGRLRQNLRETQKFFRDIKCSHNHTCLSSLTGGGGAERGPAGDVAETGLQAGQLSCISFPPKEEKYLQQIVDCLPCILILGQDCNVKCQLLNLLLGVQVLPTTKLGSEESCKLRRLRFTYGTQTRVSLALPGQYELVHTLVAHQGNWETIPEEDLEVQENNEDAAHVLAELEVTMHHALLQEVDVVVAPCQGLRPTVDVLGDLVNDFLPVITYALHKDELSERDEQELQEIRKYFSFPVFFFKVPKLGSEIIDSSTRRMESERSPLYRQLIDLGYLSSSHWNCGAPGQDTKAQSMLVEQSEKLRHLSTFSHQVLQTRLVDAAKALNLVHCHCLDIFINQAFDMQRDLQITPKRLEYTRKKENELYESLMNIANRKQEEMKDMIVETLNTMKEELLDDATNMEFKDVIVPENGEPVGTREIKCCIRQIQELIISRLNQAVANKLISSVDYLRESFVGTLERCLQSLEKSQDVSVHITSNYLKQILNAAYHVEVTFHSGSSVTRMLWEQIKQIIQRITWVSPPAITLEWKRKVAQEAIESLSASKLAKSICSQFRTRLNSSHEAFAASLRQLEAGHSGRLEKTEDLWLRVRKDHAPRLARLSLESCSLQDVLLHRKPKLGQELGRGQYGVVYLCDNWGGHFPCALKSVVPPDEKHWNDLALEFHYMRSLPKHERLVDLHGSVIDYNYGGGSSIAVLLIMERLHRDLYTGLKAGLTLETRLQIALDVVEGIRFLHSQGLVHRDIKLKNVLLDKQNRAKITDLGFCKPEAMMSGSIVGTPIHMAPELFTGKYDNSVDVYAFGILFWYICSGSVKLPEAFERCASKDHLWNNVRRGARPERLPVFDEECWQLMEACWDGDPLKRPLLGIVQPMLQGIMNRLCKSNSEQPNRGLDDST

[5] = target: Insulin receptor-related protein (Homo sapiens) (UniProt P14616); test: Inhibition of IRR (unknown origin) at 10 uM after 120 mins P33 radiolabeled kinase activity assay
[6] = target: Dual specificity mitogen-activated protein kinase kinase 2 (Homo sapiens) (UniProt P36507); test: Inhibition of MEK2 (unknown origin) at 10 uM after 120 mins P33 radiolabeled kinase activity assay
[7] = target: Myosin light chain kinase, smooth muscle (Homo sapiens) (UniProt Q15746); test: Inhibition of MLCK (unknown origin) at 10 uM after 120 mins P33 radiolabeled kinase activity assay
[8] = target: T3, NUAK family SNF1-like kinase 1 (Homo sapiens) (UniProt O60285); test: Inhibition of ARK5 (unknown origin) at 10 uM after 120 mins P33 radiolabeled kinase activity assay
T3 sequence (whole entry): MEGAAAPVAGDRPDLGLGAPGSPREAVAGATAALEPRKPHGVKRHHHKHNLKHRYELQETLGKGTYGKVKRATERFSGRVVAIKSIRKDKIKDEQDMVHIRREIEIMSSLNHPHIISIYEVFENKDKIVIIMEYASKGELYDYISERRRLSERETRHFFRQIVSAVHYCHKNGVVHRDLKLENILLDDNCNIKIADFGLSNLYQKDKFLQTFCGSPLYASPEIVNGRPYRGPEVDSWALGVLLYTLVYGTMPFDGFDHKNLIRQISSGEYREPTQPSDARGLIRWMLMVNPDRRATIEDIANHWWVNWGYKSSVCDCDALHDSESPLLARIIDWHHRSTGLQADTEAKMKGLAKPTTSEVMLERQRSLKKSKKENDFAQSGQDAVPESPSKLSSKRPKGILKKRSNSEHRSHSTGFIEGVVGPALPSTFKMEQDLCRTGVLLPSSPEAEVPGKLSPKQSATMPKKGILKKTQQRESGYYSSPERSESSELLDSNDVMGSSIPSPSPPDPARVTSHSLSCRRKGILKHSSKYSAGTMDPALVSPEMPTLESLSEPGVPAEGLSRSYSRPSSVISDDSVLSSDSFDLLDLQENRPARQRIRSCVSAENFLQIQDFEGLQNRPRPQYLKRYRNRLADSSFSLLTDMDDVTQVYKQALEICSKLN

Sequence of RAF proto-oncogene serine/threonine-protein kinase (Homo sapiens) (P04049 whole entry): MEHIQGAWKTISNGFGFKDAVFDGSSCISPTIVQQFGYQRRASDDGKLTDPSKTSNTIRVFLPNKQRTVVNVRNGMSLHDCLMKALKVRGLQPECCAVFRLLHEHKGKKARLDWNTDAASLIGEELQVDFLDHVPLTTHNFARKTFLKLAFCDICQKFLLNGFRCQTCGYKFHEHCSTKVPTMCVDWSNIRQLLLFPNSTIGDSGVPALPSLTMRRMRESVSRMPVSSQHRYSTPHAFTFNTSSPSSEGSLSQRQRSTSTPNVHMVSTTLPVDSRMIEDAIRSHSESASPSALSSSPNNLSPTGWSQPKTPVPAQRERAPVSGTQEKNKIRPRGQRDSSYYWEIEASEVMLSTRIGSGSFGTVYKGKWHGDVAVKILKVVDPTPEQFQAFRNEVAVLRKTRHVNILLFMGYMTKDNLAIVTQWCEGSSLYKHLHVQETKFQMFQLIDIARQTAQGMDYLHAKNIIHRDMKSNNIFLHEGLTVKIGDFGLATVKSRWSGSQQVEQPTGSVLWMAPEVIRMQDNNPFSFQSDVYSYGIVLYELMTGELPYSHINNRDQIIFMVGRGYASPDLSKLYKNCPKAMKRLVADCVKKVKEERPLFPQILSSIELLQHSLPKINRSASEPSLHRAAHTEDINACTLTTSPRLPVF
Sequence of Myosin light chain kinase, smooth muscle (Homo sapiens) (Q15746 whole entry): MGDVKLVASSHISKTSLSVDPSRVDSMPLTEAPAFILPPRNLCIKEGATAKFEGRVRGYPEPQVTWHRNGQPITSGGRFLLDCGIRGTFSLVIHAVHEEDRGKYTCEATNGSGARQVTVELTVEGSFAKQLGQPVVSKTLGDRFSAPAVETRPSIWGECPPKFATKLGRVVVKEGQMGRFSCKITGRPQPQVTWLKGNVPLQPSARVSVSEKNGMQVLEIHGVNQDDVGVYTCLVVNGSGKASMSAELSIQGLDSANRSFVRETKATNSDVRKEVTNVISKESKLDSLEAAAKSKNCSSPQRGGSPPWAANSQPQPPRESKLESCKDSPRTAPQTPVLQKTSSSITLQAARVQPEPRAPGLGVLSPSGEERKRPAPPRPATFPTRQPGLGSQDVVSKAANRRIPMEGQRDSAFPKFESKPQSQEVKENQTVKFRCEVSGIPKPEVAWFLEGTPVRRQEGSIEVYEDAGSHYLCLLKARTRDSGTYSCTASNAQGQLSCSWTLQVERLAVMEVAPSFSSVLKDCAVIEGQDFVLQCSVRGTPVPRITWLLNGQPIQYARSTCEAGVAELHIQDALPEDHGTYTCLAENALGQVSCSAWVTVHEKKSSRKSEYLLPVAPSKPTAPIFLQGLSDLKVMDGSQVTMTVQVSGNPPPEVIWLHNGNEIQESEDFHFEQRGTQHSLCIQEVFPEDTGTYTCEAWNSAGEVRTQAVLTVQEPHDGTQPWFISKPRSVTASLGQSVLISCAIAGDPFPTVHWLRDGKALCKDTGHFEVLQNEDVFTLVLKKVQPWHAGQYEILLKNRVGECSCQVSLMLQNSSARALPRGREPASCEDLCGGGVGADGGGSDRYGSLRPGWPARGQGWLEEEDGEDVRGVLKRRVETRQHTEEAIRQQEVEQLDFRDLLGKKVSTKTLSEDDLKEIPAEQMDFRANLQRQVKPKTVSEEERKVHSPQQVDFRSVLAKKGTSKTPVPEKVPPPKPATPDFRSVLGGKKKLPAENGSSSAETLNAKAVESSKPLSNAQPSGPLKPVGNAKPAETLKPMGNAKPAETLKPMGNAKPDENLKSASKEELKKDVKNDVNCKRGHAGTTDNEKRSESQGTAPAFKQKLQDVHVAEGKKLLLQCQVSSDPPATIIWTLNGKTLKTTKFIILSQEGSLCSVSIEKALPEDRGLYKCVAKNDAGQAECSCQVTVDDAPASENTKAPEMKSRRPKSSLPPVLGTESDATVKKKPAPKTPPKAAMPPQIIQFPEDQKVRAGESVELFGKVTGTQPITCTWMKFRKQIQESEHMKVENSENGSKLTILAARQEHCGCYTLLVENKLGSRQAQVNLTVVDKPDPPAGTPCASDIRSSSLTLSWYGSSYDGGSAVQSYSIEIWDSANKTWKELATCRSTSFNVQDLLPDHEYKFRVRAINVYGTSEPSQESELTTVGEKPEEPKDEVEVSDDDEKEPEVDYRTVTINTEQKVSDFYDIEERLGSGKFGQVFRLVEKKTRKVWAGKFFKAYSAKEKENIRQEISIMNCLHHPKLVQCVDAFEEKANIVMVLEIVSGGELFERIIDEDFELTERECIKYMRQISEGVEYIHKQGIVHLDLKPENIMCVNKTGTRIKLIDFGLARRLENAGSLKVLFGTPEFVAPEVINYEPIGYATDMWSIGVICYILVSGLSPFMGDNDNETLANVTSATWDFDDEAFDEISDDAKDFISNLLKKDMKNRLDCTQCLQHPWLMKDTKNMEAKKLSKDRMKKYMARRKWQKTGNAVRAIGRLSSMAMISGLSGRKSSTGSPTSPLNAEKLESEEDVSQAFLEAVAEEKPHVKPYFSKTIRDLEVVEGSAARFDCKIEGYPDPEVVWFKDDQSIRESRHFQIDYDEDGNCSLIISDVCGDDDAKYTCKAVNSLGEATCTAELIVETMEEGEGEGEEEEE
Sequence of Dual specificity mitogen-activated protein kinase kinase 2 (Homo sapiens) (P36507 whole entry): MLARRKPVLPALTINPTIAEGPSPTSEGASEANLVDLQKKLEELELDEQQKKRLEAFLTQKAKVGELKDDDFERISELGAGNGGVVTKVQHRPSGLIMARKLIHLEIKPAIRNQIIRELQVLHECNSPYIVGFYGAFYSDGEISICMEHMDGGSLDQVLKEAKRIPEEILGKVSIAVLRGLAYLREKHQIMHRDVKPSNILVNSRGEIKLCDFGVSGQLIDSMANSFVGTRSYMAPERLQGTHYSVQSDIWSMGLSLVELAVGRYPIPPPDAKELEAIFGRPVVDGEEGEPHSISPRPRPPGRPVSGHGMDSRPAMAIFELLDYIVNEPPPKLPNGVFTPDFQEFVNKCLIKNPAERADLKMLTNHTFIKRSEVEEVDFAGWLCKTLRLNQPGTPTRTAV
Sequence of Insulin receptor-related protein (Homo sapiens) (P14616 27-742 limits assumed): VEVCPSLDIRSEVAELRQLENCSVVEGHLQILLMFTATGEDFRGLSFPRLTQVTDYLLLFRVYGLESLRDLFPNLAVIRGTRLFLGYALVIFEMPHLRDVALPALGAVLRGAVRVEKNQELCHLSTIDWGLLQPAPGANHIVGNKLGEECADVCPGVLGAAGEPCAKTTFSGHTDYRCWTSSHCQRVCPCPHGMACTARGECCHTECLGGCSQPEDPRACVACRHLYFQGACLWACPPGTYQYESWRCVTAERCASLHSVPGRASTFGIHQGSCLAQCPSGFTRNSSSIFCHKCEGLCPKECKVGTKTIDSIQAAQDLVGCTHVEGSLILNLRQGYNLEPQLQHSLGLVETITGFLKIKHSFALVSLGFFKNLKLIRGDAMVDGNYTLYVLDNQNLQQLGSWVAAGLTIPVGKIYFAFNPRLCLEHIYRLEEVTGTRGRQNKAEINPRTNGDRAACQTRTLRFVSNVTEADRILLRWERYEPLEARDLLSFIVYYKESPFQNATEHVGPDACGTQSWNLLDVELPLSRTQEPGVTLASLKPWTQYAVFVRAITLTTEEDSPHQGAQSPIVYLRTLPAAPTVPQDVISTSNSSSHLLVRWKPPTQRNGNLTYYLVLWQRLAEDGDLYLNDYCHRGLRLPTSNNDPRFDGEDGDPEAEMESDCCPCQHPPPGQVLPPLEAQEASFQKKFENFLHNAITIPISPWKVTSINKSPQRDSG
Sequence of Insulin receptor-related protein (Homo sapiens) (P14616 747-1297 limits assumed): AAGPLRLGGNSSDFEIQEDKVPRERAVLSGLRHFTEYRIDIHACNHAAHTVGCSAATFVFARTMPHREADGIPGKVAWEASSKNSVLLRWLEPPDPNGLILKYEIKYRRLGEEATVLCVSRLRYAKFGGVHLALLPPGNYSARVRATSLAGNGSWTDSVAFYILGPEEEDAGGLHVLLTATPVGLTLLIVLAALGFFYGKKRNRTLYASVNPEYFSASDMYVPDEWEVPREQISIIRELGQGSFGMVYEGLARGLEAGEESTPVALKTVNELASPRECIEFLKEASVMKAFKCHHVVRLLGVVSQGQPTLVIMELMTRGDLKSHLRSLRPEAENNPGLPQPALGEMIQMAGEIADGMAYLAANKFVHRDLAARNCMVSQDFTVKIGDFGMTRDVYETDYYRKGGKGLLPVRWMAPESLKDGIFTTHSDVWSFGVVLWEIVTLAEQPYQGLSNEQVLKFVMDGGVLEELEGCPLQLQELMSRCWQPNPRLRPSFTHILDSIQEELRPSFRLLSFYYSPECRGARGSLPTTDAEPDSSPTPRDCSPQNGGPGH
Sequence of Tyrosine-protein kinase Fes/Fps (Homo sapiens) (P07332 whole entry): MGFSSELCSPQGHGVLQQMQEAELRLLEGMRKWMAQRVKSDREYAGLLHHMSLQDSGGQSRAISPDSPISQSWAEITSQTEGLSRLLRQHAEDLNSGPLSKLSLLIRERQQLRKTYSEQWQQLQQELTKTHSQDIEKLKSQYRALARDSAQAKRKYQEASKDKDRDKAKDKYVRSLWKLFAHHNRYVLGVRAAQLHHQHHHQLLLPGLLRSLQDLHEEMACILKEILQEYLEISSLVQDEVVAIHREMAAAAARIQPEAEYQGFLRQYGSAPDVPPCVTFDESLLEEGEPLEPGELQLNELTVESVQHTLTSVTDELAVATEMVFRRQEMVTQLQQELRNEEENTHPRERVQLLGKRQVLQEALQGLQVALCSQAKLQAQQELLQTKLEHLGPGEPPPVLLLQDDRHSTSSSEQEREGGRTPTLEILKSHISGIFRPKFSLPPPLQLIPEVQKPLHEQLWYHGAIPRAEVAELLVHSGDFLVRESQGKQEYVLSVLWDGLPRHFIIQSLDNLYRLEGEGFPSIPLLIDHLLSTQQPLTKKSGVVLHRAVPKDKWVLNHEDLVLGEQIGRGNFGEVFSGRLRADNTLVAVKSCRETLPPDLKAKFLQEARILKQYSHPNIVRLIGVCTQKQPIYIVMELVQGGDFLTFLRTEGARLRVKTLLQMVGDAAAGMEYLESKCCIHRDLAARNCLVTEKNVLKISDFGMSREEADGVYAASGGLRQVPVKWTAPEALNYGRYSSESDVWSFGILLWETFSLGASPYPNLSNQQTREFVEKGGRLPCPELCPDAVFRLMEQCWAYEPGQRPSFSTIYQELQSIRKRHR

SMILES	inhibition [1] [%]	inhibition [2] [%]	inhibition (Homo sapiens) [%]	inhibition [3] [%]	inhibition [4] [%]	inhibition [5] [%]	inhibition [6] [%]	inhibition [7] [%]	inhibition [8] [%]
COCCNC(=O)c1ccc2c(c1)nc(-c1cnc(-c3ccc(Cl)cc3)[nH]1)n2CCOC	16.4	24.4	-4.49	41.5	-4.89	1.49	-5.83	17.6	7.6
CS(=O)(=O)c1cccc(Nc2nccc(-c3sc(N4CCOCC4)nc3-c3cccc(NS(=O)(=O)c4c(F)cccc4F)c3)n2)c1	42.4	89.4	2.75	100	25	10.1	79	15.6	41.1
CC(C)(C)c1cc(NC(=O)Nc2ccc(Oc3ccncc3)cc2)no1	33.8	24.4	15.2	98.8	-0.31	33	52.5	19.4	-0.15
